Results reported in patent publication US7875647B2, “Heteroaryl-pyrazole derivatives as cannabinoid CB1 receptor antagonists” (Green Cross Corporation, priority 2006, dated 2011).
pIC50: −log10 of the molar value. Read-outs that look alike come from different tables or passages of the source.

Target: T1, Cannabinoid-1 receptor (CB1R) (Rattus norvegicus, UniProt P20272)
T1 construct: The tissue obtained from the brain of SD rats was homogenized; from tissue; host or cells: brain of SD rats (membrane pellet of the homogenate)
T1 sequence (P20272 whole entry): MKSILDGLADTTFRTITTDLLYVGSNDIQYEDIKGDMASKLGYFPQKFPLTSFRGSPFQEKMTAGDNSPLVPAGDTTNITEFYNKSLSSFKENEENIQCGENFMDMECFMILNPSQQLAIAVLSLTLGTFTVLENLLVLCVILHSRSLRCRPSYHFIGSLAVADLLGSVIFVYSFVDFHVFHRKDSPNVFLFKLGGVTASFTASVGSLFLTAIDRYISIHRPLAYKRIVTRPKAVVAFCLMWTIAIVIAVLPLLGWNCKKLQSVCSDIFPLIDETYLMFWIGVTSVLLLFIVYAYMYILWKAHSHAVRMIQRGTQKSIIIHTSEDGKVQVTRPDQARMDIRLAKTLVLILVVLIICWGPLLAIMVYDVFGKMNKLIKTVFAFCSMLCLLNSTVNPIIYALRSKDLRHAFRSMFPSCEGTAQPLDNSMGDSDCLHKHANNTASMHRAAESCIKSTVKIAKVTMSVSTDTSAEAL
Assay: Cannabinoid-1 receptor (CB1R) binding affinity assay ([3H]CP-55940, rat CB-1 receptor binding protocol)
Settings: brain tissue of SD rats, [3H]CP-55940, 30° C. 60 min; for pIC50: read-out: IC50; for IC50: IC50(nM)

Row | SMILES | pIC50 | IC50 [nM]
1 | CC(=O)c1c(-c2nnc(C3(c4ccc(Cl)cc4)CC3)o2)nn(-c2ccc(Cl)cc2Cl)c1-c1ccc(Cl)cc1 [Example 215, 1-(5-(4-chlorophenyl)-3-(5-(1-(4-chlorophenyl)cyclopropyl)-1,3,4-oxadiazol-2-yl)-1-(2,4-dichlorophenyl)-1H-pyrazol-4-yl)ethanone] | 7.97 | –
2 | C=C(C)c1c(-c2nnc(C(C)(C)C)o2)nn(-c2ccc(Cl)cc2Cl)c1-c1ccc(Cl)cc1 [Example 219, 2-tert-butyl-5-(5-(4-chlorophenyl)-1-(2,4-dichlorophenyl)-4-(prop-1-en-2-yl)-1H-pyrazol-3-yl)-1,3,4-oxadiazole] | 8.32 | –
3 | C=C(C)c1c(-c2nnc(C(C)(C)C)o2)nn(-c2ccc(Cl)cc2Cl)c1-c1ccc(Br)cc1 [Example 220, 2-(5-(4-bromophenyl)-1-(2,4-dichlorophenyl)-4-(prop-1-en-2-yl)-1H-pyrazol-3-yl)-5-tert-butyl-1,3,4-oxadiazole] | – | 8.26
4 | FCc1c(-c2nnc(C3(c4ccc(Cl)cc4)CC3)o2)nn(-c2ccc(Cl)cc2Cl)c1-c1ccc(Cl)cc1 [Example 223, 2-(5-(4-chlorophenyl)-1-(2,4-dichlorophenyl)-4-(fluoromethyl)-1H-pyrazol-3-yl)-5-(1-(4-chlorophenyl)cyclopropyl)-1,3,4-oxadiazole] | 8.10 | –
5 | CC(C)(C)c1nnc(-c2nn(-c3ccc(Cl)cc3Cl)c(-c3ccc(Cl)cc3)c2C(F)F)o1 [Example 224, 2-tert-butyl-5-(5-(4-chlorophenyl)-1-(2,4-dichlorophenyl)-4-(difluoromethyl)-1H-pyrazol-3-yl)-1,3,4-oxadiazole] | 7.44 | –
6 | FC(F)c1c(-c2nnc(C3(c4ccc(Cl)cc4)CC3)o2)nn(-c2ccc(Cl)cc2Cl)c1-c1ccc(Cl)cc1 [Example 225, 2-(5-(4-chlorophenyl)-1-(2,4-dichlorophenyl)-4-(difluoromethyl)-1H-pyrazol-3-yl)-5-(1-(4-chlorophenyl)cyclopropyl)-1,3,4-oxadiazole] | 7.92 | –
7 | C=Cc1c(-c2nnc(C(C)(C)C)o2)nn(-c2ccc(Cl)cc2Cl)c1-c1ccc(Br)cc1 [Example 228, 2-(5-(4-bromophenyl)-1-(2,4-dichlorophenyl)-4-vinyl-1H-pyrazol-3-yl)-5-tert-butyl-1,3,4-oxadiazole] | – | 16.6
8 | C=Cc1c(-c2nnc(C3(c4ccc(Cl)cc4)CC3)o2)nn(-c2ccc(Cl)cc2Cl)c1-c1ccc(Cl)cc1 [Example 229, 2-(5-(4-chlorophenyl)-1-(2,4-dichlorophenyl)-4-vinyl-1H-pyrazol-3-yl)-5-(1-(4-chlorophenyl)cyclopropyl)-1,3,4-oxadiazole] | 7.85 | –
9 | CC(C)(C)c1nnc(-c2nn(-c3ccc(Cl)cc3Cl)c(-c3ccc(Cl)cc3)c2COc2ccccc2)o1 [Example 233, 2-tert-butyl-5-(5-(4-chlorophenyl)-1-(2,4-dichlorophenyl)-4-(phenoxymethyl)-1H-pyrazol-3-yl)-1,3,4-oxadiazole] | 7.54 | –
10 | CCCCC(OCc1ccccc1)c1nnc(-c2nn(-c3ccc(Cl)cc3Cl)c(-c3ccc(Cl)cc3)c2C)o1 (centres unmarked) [Example 236, 2-(1-(benzyloxy)pentyl)-5-(5-(4-chlorophenyl)-1-(2,4-dichlorophenyl)-4-methyl-1H-pyrazol-3-yl)-1,3,4-oxadiazole] | 6.75 | –

Now from value to compound, other results behind:

Row | pIC50 | SMILES | IC50 [nM]
11 | 7.92 | CC(=O)c1c(-c2nnc(C(C)(C)C)o2)nn(-c2ccc(Cl)cc2Cl)c1-c1ccc(Br)cc1 [Example 214, 1-(5-(4-bromophenyl)-3-(5-tert-butyl-1,3,4-oxadiazol-2-yl)-1-(2,4-dichlorophenyl)-1H-pyrazol-4-yl)ethanone] | –
12 | 7.24 | CC(=O)Oc1c(-c2nnc(C(C)(C)C)o2)nn(-c2ccc(Cl)cc2Cl)c1-c1ccc(Cl)cc1 [Example 216, 3-(5-tert-butyl-1,3,4-oxadiazol-2-yl)-5-(4-chlorophenyl)-1-(2,4-dichlorophenyl)-1H-pyrazol-4-yl acetate] | –
13 | 7.65 | CC(C)(C)c1nnc(-c2nn(-c3ccc(Cl)cc3Cl)c(-c3ccc(Cl)cc3)c2C(C)(C)O)o1 [Example 217, 2-(3-(5-tert-butyl-1,3,4-oxadiazol-2-yl)-5-(4-chlorophenyl)-1-(2,4-dichlorophenyl)-1H-pyrazol-4-yl)propan-2-ol] | –
14 | 7.77 | CC(C)(C)c1nnc(-c2nn(-c3ccc(Cl)cc3Cl)c(-c3ccc(Br)cc3)c2C(C)(C)O)o1 [Example 218, 2-(5-(4-bromophenyl)-3-(5-tert-butyl-1,3,4-oxadiazol-2-yl)-1-(2,4-dichlorophenyl)-1H-pyrazol-4-yl)propan-2-ol] | –
15 | 7.83 | CC(C)(C)c1nnc(-c2nn(-c3ccc(Cl)cc3Cl)c(-c3ccc(Cl)cc3)c2CF)o1 [Example 221, 2-tert-butyl-5-(5-(4-chlorophenyl)-1-(2,4-dichlorophenyl)-4-(fluoromethyl)-1H-pyrazol-3-yl)-1,3,4-oxadiazole] | –
16 | 8.10 | CC(C)(C)c1nnc(-c2nn(-c3ccc(Cl)cc3Cl)c(-c3ccc(Br)cc3)c2CF)o1 [Example 222, 2-(5-(4-bromophenyl)-1-(2,4-dichlorophenyl)-4-(fluoromethyl)-1H-pyrazol-3-yl)-5-tert-butyl-1,3,4-oxadiazole] | –
17 | 7.20 | COC(C)c1c(-c2nnc(C(C)(C)C)o2)nn(-c2ccc(Cl)cc2Cl)c1-c1ccc(Cl)cc1 (centres unmarked) [Example 226, 2-tert-butyl-5-(5-(4-chlorophenyl)-1-(2,4-dichlorophenyl)-4-(1-methoxyethyl)-1H-pyrazol-3-yl)-1,3,4-oxadiazole] | –
18 | 7.77 | C=Cc1c(-c2nnc(C(C)(C)C)o2)nn(-c2ccc(Cl)cc2Cl)c1-c1ccc(Cl)cc1 [Example 227, 2-tert-butyl-5-(5-(4-chlorophenyl)-1-(2,4-dichlorophenyl)-4-vinyl-1H-pyrazol-3-yl)-1,3,4-oxadiazole] | –
19 | 8.05 | COC(=O)NC(C)c1c(-c2nnc(C(C)(C)C)o2)nn(-c2ccc(Cl)cc2Cl)c1-c1ccc(Br)cc1 (centres unmarked) [Example 230, Methyl 1-(5-(4-bromophenyl)-3-(5-tert-butyl-1,3,4-oxadiazol-2-yl)-1-(2,4-dichlorophenyl)-1H-pyrazol-4-yl)ethylcarbamate] | –
20 | 8.39 | COC(=O)NC(C)c1c(-c2nnc(C3(c4ccc(Cl)cc4)CC3)o2)nn(-c2ccc(Cl)cc2Cl)c1-c1ccc(Cl)cc1 (centres unmarked) [Example 231, Methyl 1-(5-(4-chlorophenyl)-3-(5-(1-(4-chlorophenyl)cyclopropyl)-1,3,4-oxadiazol-2-yl)-1-(2,4-dichlorophenyl)-1H-pyrazol-4-yl)ethylcarbamate] | –
21 | 7.81 | COC(=O)NCc1c(-c2nnc(C(C)(C)C)o2)nn(-c2ccc(Cl)cc2Cl)c1-c1ccc(Cl)cc1 [Example 232, Methyl (3-(5-tert-butyl-1,3,4-oxadiazol-2-yl)-5-(4-chlorophenyl)-1-(2,4-dichlorophenyl)-1H-pyrazol-4-yl)methylcarbamate] | –
22 | 7.61 | CC(C)(C)c1nnc(-c2nn(-c3ccc(Cl)cc3Cl)c(-c3ccc(Cl)cc3)c2COc2ccccn2)o1 [Example 234, 2-tert-butyl-5-(5-(4-chlorophenyl)-1-(2,4-dichlorophenyl)-4-((pyridin-2-yloxy)methyl)-1H-pyrazol-3-yl)-1,3,4-oxadiazole] | –
23 | 7.38 | CCCOC(C)(C)c1nnc(-c2nn(-c3ccc(Cl)cc3Cl)c(-c3ccc(Cl)cc3)c2C)o1 [Example 235, 2-(5-(4-chlorophenyl)-1-(2,4-dichlorophenyl)-4-methyl-1H-pyrazol-3-yl)-5-(2-propoxypropan-2-yl)-1,3,4-oxadiazole] | –
